Measurements: patent publication US6479487B1, “6, 9-disubstituted 2-[trans-(4-aminocyclohexyl)amino] purines” (Aventis Pharmaceuticals Inc., priority 1998, dated 2002)
Several values for one entry are separate records, joined by “and”; a condition that tells them apart may be missing. Equal entries are not always repeated. Structures can show the parent of a compound that is named as a salt. Where two headings read alike, the source gives them in different places.

Key:
HT-29 = test: In vitro tumor cell proliferation, HT-29; format: cell-based, human; settings: many values given with an undefined *, read-out: In vitro Tumor Cell Proliferation (IC50, μM) Colon HT-29
In short: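 HT-29 cells seeded overnight at 37° C, then exposed to drug for 3 days, refed with fresh drug-containing medium for 4 more days. Proliferation read by sulforhodamine B staining after TCA fixation; alternatively by CyQUANT after freezing plates at −80° C following 3 days' drug exposure.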

DU145 = test: In vitro tumor cell proliferation, DU145; format: cell-based, human; settings: many values given with an undefined *, read-out: In vitro Tumor Cell Proliferation (IC50, μM) Prostate DU145
In short: (§1)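 Tumor cells were seeded overnight at 37° C, then exposed to drug diluted in culture medium for 3 days, refed with fresh drug-containing medium and kept 4 more days. Cells were fixed with 10% trichloroacetic acid and stained with 0.4% sulforhodamine B; alternatively, CyQUANT read proliferation after 3 days' drug exposure.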

MDA-MB-231 = test: In vitro tumor cell proliferation, MDA-MB-231; format: cell-based, human; settings: sulforhodamine B or CyQUANT assay, many values given with an undefined *, read-out: In vitro Tumor Cell Proliferation (IC50, μM) Breast MDA-MB-231
In short: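 Cells plated overnight at 37 °C, then exposed to drug for 3 days, refed with fresh drug and incubated 4 more days. Read-out by sulforhodamine B staining after TCA fixation; alternatively, CyQUANT after 3-day drug exposure and freezing at −80 °C.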

A549 = test: In vitro tumor cell proliferation, A549; format: cell-based, human; settings: many values given with an undefined *, read-out: In vitro Tumor Cell Proliferation (IC50, μM) Lung A549
In short: as §1

PC-3 = test: In vitro tumor cell proliferation, PC-3; format: cell-based, human; settings: many values given with an undefined *, read-out: In vitro Tumor Cell Proliferation (IC50, μM) Prostate PC-3
In short: as §1

cdk4/cyclin D1 = target: T1, cdk4/cyclin D1 (Homo sapiens, UniProt P11802); test: Cyclin-dependent Kinase 4 Assay (cdk4/cyclin D1, GST-Rb substrate); format: biochemical; settings: cdk4/cyclin D1 insect cell lysate, 10 μM ATP, 30 min at 37° C., several values = separate determinations, read-out: CDK4 Inhibition IC50
T1 construct: made in house; host or cells: Sf9 insect cells (Bac-to-Bac baculovirus, pFastBac)
T1 sequence (P11802 whole entry): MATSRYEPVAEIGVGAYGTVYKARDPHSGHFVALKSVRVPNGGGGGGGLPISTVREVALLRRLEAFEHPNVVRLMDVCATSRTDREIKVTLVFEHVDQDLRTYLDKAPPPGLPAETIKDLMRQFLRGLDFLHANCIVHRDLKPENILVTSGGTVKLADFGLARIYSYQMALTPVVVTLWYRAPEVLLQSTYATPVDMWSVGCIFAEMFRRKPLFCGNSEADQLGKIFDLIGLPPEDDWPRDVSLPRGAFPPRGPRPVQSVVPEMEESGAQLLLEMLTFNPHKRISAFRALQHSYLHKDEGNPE
T1 sequence (P24385 whole entry partner): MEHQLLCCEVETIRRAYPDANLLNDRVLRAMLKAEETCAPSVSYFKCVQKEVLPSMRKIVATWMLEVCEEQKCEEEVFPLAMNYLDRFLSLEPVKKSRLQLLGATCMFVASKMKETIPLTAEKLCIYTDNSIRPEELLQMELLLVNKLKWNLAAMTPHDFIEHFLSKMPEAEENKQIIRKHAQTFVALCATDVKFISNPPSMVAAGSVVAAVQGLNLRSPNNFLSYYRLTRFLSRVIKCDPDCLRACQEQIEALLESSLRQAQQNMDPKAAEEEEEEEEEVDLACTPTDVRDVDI
In short: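 Insect-cell lysate of coexpressed cdk4/cyclin D1 (0.1 μg) acts on GST-Rb (0.5 μg) bound to glutathione-Sepharose, in 50 mM HEPES pH 7.5, 10 mM MgCl2, 1 mM EGTA. Reaction runs 30 min at 37 °C, then is stopped by filtration and TNEN washes. Rb phosphorylation read by scintillation counting; IC50 derived.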

MDA-MB-435 = test: In vitro tumor cell proliferation, MDA-MB-435; format: cell-based; settings: values given with an undefined *, read-out: In vitro Tumor Cell Proliferation (IC50, μM) Breast MDA-MB-435
In short: as §1

Colo-205 = test: In vitro tumor cell proliferation, Colo-205; format: cell-based; settings: values given with an undefined *, read-out: In vitro Tumor Cell Proliferation (IC50, μM) Colon Colo-205
In short: as §1

DMS-114 = test: In vitro tumor cell proliferation, DMS-114; format: cell-based, human; settings: many values given with an undefined *, read-out: In vitro Tumor Cell Proliferation (IC50, μM) Lung DMS-114
In short: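 Human small cell lung carcinoma DMS-114 cells plated overnight, then drug-treated for 3 days, medium and drug renewed, and incubated 4 more days. Growth read by sulforhodamine B staining after TCA fixation; alternatively by CyQUANT after 3 days' drug exposure and freezing at −80 °C.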

cdk2/cyclin E = target: T2, cdk2/cyclin E (Homo sapiens, UniProt P24941); test: Cyclin-Dependent Kinase 2 Assay (cdk2/cyclin E, GST-Rb substrate); format: biochemical; settings: recombinant cdk2/cyclin E, 10 μM ATP, 30 min at 30° C., several values in a cell = separate determinations, read-out: CDK-2 Inhibition IC50
T2 construct: made in house; host or cells: insect cells (baculovirus co-infection)
Protocol: Substrate: GST-Rb as described above for cdk4/cyclin D1
Assay conditions for cdk2/cyclin E were identical to those for cdk4/cyclin D1 including the substrate. The concentration of recombinant cdk2/cyclin E in the assay was 0.1 μg per 100 μl assay. Incubation was for 30 min at 30° C.

[1] = Homo sapiens, MDA-MB-231, MDA-MB-231
[2] = Homo sapiens, MDA-MB-435, MDA-MB-435
[3] = Homo sapiens, COLO 205, Colo-205

Row | Molecule | IC50 (cdk4/cyclin D1) | IC50 (cdk2/cyclin E) | IC50 (HT-29; HT-29, dihydrochloride) | IC50 (HT-29; Homo sapiens, HT-29, HT-29) | IC50 (DU145; DU145, dihydrochloride) | IC50 (DU145; Homo sapiens, DU-145, DU145) | IC50 (MDA-MB-231; [1]) | IC50 (MDA-MB-231; MDA-MB-231, dihydrochloride) | IC50 (A549; A549, dihydrochloride) | IC50 (A549; Homo sapiens, A549, A549) | IC50 (PC-3; Homo sapiens, PC-3, PC-3) | IC50 (PC-3; PC-3, dihydrochloride) | IC50 (MDA-MB-435; [2]) | IC50 (MDA-MB-435; MDA-MB-435, dihydrochloride) | IC50 (Colo-205; Colo-205, dihydrochloride) | IC50 (Colo-205; [3]) | IC50 (DMS-114; Homo sapiens, DMS-114, DMS-114) | IC50 (DMS-114; DMS-114, dihydrochloride) | other results
1 | 2-[Trans-(4-aminocyclohexyl)amino]-6-[4-(1-(4-methylbenzyl))piperidinylamino]-9-cyclopentylpurine [Example 40] | 1000 nM and 2000 nM | 230 nM and 170 nM | – | – | – | – | – | – | – | – | – | – | – | – | – | – | – | – | IC50 (HT-29; HT-29): 0.29 µM and 0.27 µM; IC50 (DU145; DU145): 0.24 µM; IC50 (MDA-MB-231; MDA-MB-231): 0.19 µM and 0.28 µM; IC50 (A549; A549): 0.18 µM; IC50 (PC-3; PC-3): 0.34 µM; IC50 (MDA-MB-435; MDA-MB-435): 0.27 µM; IC50 (Colo-205; Colo-205): 0.16 µM and 0.18 µM; IC50 (DMS-114; DMS-114): 0.26 µM
2 | N[C@H]1CC[C@H](Nc2nc(Nc3ccc(OC(F)(F)F)cc3)c3ncn(C4CCCC4)c3n2)CC1 [Example 5, 2-[Trans-(4-aminocyclohexyl)amino]-6-[(4-trifluoromethoxy)phenylamino]-9-cyclopentylpurine dihydrochloride] | 400 nM and 700 nM | 230 nM | 1.1 µM | 1 µM | 0.7 µM | 0.56 µM | 0.78 µM | 0.87 µM | 0.53 µM | 0.35 µM | 1.1 µM | 0.7 µM | 1.3 µM | 1.5 µM | 1.2 µM | 1 µM | 0.47 µM | – | –
3 | CCN(CC)CCNc1nc(N[C@H]2CC[C@H](N)CC2)nc2c1ncn2C1CCCC1 [Example 6, 2-[Trans-(4-aminocyclohexyl)amino]-6-[2-(diethylamino)ethylamino]-9-cyclopentylpurine trihydrochloride] | 300 nM and 700 nM | 690 nM | – | – | – | 7.8 µM | 6.2 µM | – | – | 7.2 µM | 6.4 µM | – | – | – | – | 5.4 µM | 6.3 µM | – | IC50 (HT-29; HT-29, trihydrochloride): 7.7 µM; IC50 (DU145; DU145, trihydrochloride): 7.9 µM; IC50 (MDA-MB-231; MDA-MB-231, trihydrochloride): 6.4 µM; IC50 (PC-3; PC-3, trihydrochloride): 8.2 µM; IC50 (MDA-MB-435; MDA-MB-435, trihydrochloride): 11 µM; IC50 (Colo-205; Colo-205, trihydrochloride): 4.7 µM; IC50 (DMS-114; DMS-114, trihydrochloride): 9.6 µM
4 | N[C@H]1CC[C@H](Nc2nc(NCc3cccc4ccccc34)c3ncn(C4CCCC4)c3n2)CC1 [Example 7, 2-[Trans-(4-aminocyclohexyl)amino]-6-[(1-napthyl)methylamino]-9-cyclopentylpurine dihydrochloride] | 1400 nM | 160 nM | 4.8 µM | 4.6 µM | 5.2 µM | 5.5 µM | 4.4 µM | 4.9 µM | – | 3.4 µM | 4.2 µM | 4.8 µM | 11 µM | 10 µM | 3.5 µM | 3.4 µM | 2.8 µM | 3.3 µM | –
5 | COc1ccc2[nH]cc(CCNc3nc(N[C@H]4CC[C@H](N)CC4)nc4c3ncn4C3CCCC3)c2c1 [Example 9, 2-[Trans-(4-aminocyclohexyl)amino]-6-[(3-(5-methoxyindolyl))-2-ethylamino]-9-cyclopentylpurine dihydrochloride] | 3900 nM and 2000 nM | 165 nM | 0.96 µM | 0.87 µM | 4 µM | 3.5 µM | 0.7 µM | 1.1 µM | 2 µM | 1.2 µM | 0.41 µM | 0.28 µM | > 10 µM | – | 0.94 µM | 0.76 µM | 1 µM | 1.4 µM | –
6 | N[C@H]1CC[C@H](Nc2nc(NNc3ccccc3F)c3ncn(C4CCCC4)c3n2)CC1 [Example 11, 2-[Trans-(4-aminocyclohexyl)amino]-6-[2-fluorophenylhydrazino]-9-cyclopentylpurine dihydrochloride] | 8900 nM and 5800 nM | 100 nM | 7.8 µM | 6.5 µM | 4.7 µM | 4.6 µM | 5 µM | 6.7 µM | 3.4 µM | 4.5 µM | 3.6 µM | – | – | 10 µM | 5.2 µM | 6.5 µM | 6.8 µM | 4.9 µM | –
7 | N[C@H]1CC[C@H](Nc2nc(Nc3cccc(F)c3)c3ncn(C4CCCC4)c3n2)CC1 [Example 21, 2-[Trans-(4-aminocyclohexyl)amino]-6-(3-fluorophenylamino)-9-cyclopentylpurine dihydrochloride] | 230 nM and 970 nM | 82 nM and 80 nM | 1.7 µM | 1.6 µM | 0.9 µM | 0.7 µM | 1.3 µM | – | 1 µM | 0.6 µM | 1.3 µM | 0.7 µM | 1.9 µM | 2.3 µM | 1.1 µM | 1.2 µM | 1.1 µM | 0.7 µM | –
8 | N[C@H]1CC[C@H](Nc2nc(NNc3ccc(Cl)cc3Cl)c3ncn(C4CCCC4)c3n2)CC1 [Example 147, 2-[Trans-(4-aminocyclohexyl)amino]-6-(2,4-dichlorophenylhydrazino)-9-cyclopentylpurine dihydrochloride] | 5700 nM and 6100 nM | 268 nM | 2 µM | 2.8 µM | 5.7 µM | 3.1 µM | 5.1 µM | 3.2 µM | 2.6 µM | 2.7 µM | 3.2 µM | 2.3 µM | 5.6 µM | 6 µM | 3.5 µM | 5.7 µM | – | – | –
